A melting point compilation (Tetko et al.)

| SMILES | melting point [°C] |
| --- | --- |
| O=C(O)CSCC(=O)N1CCCCC1 | 91 to 93 |
| COc1ccc(NS(=O)(=O)c2c[nH]c(C(=O)O)c2)cc1Cl | 207 to 209 |
| Cc1nc(=NCC(=O)O)c2cc(-c3ccccc3)sc2[nH]1 | 257 to 259 |
| CS(=O)(=O)N1CCC(N=C=O)CC1 | 84 to 86 |
| Cc1c(N)cccc1C(=O)Nc1ccccc1 | 161 to 163 |
| CCC(Oc1cccc(C)c1)C(=O)O (centres undefined) | 72 to 74 |
| COc1ccc2cncnc2c1 | 83 to 85 |
| Cc1cc(NC(=O)C(C)SCC(=O)O)no1 (centres undefined) | 125 to 127 |
| Clc1ccccc1-c1ncn[nH]1 | 154 to 156 |
| O=C(O)C(=O)NCc1ccc(F)cc1 | 134 to 136 |
| OCc1ccc(N2CCCC2)cc1 | 61 to 63 |
| O=C(O)C1CCCCC1C(=O)N1CCCC1 (centres undefined) | 119 to 121 |
| O=C(O)CNC(=O)c1ccc(N2CCCC2=O)cc1 | 190 to 200 |
| c1cc2c(cn1)ncn2C1CC1 | 53 to 55 |
| O=C(O)c1[nH]nc2cc(OC(F)(F)F)ccc12 | 261 to 263 |
| O=C1COc2ccncc2N1 | 268 to 270 |
| Cc1sc2nc(CCl)[nH]c(=O)c2c1C | 190 to 192 |
| Cc1nn(C)c(C(F)(F)F)c1C(=O)O | 213 to 215 |
| O=[N+]([O-])c1cnc(Br)c(Br)c1 | 76 to 78 |
| N#CC(=O)c1ccc(Cl)cc1 | 41 to 43 |
| Cn1cc(Nc2cccc(N)c2)cn1 | 92 to 94 |
| Cc1nc(-c2ccc(C)c(NC(=O)CCl)c2)n[nH]1 | 297 to 299 |
| O=C(O)CCNS(=O)(=O)C(F)(F)F | 87 to 89 |
| CS(=O)(=O)Cc1noc(CCl)n1 | 73 to 75 |
| O=C(O)c1occc1CSc1ccccc1 | 114 to 116 |

| SMILES | melting point [°C] |
| --- | --- |
| CCCS(=O)(=O)N1CCC(C(=O)O)CC1 | 146 to 148 |
| O=C(O)c1cc(-c2ccccc2Cl)nc2ccccc12 | 273 to 275 |
| CCOC(=O)c1sc(C(C)N)nc1C (centres undefined) | 53 to 55 |
| c1ccc2oc(C3CCNCC3)nc2c1 | 111 to 113 |
| COc1cccc(-c2csc(=O)[nH]2)c1 | 154 to 156 |
| CCOC=C1C(=O)N(c2cccc(Cl)c2)C(=O)c2ccccc21 | 205 to 209 |
| Cc1nc(COc2ccc(C(=O)O)cc2)cs1 | 196 to 198 |
| NC(=O)CSc1ccccc1N | 113 to 115 |
| CC1CC(N)C(=O)N1c1ccccc1 (centres undefined) | 77 to 79 |
| O=C(O)c1ccc(-n2cncn2)c(F)c1 | 285 to 287 |
| O=C(Nc1cn[nH]c1)c1ccncc1 | 239 to 241 |
| O=C(O)Cc1csc2nc(-c3ccccc3)cn12 | 220 to 222 |
| CCOc1cc(C(=O)N(C)C)ccc1N | 107 to 109 |
| CC(C)CCNC(N)=O | 43 to 45 |
| CC(C(=O)O)c1ccc2ccccc2c1 (centres undefined) | 120 to 122 |
| c1cncc(-c2ncn[nH]2)c1 | 173 to 175 |
| O=Cc1cc(O)cc(Br)c1O | 145 to 147 |
| O=c1[nH]c(CN2CCNCC2)nc2ccccc12 | 167 to 169 |
| CN(C)CCCNC(N)=S | 66 to 68 |
| NC(=O)COc1cccc(O)c1 | 134 to 136 |
| NC(c1nnn[nH]1)C1CC1 (centres undefined) | 233 to 235 |
| O=C(O)c1cn(-c2ccccc2)nc1-c1cccnc1 | 238 to 240 |
| COc1ccc(N)cc1OCc1cccnc1 | 95 to 97 |
| Clc1ccnc2c(Br)cccc12 | 148 to 150 |
| O=C(O)c1cc(S(=O)(=O)N2CCOCC2)ccc1O | 234 to 236 |

| SMILES | melting point [°C] |
| --- | --- |
| CC(C)(C)c1csc(-c2ccc(O)cc2)n1 | 228 to 230 |
| CC(Cl)C(=O)NCCc1ccc2c(c1)OCCO2 (centres undefined) | 106 to 108 |
| O=C(O)C1CCC2CCCCC2C1 (centres undefined) | 57 to 59 |
| CC(=Cc1ccc(F)cc1)C(=O)O | 150 to 152 |
| Nc1nc2c(OC(F)F)cccc2s1 | 144 to 146 |
| COC(=O)Cc1cc(O)n[nH]1 | 143 to 145 |
| COC(=O)c1cccc(-c2cccc(C(=O)OC)c2)c1 | 99 to 101 |
| CC1CN(C(=O)OC(C)(C)C)CC(C)N1 (centres undefined) | 64 to 66 |
| CC(C)c1cccc(-c2ccc(C(=O)O)o2)c1 | 84 to 86 |
| Cc1cc(C)n(-c2ccccc2N)n1 | 81 to 83 |
| O=C(NC1CC1)C(Cl)c1ccccc1 (centres undefined) | 128 to 130 |
| CCC1(C)NC(=O)N(N)C1=O (centres undefined) | 153 to 155 |
| c1ccc(OC2CCNCC2)cc1 | 34 to 36 |
| Cc1ccc(C2CC2C(=O)O)s1 (centres undefined) | 45 to 47 |
| O=C1COc2ncc(C(=O)O)cc2N1 | 319 to 321 |
| Clc1ccc2nccn2n1 | 114 to 116 |
| CC(C)(C)OC(=O)CC(C)(C#N)C(=O)O (centres undefined) | 89 to 91 |
| CC1=NOC(=O)C1CC(=O)O (centres undefined) | 149 to 151 |
| Cn1cc(S(=O)(=O)N2CCCC2)cc1C(=O)O | 219 to 221 |
| C=CC(CC(=O)O)c1ccccc1 (centres undefined) | 39 to 41 |
| Cc1nn2c(S)nnc2nc1O | 305 to 307 |
| Fc1ccc(-n2ncc3c(Cl)ncnc32)cc1 | 154 to 156 |
| COc1cc(CCC(=O)O)ccc1OCC(F)(F)F | 103 to 105 |
| NNC(=O)c1ccc(Cl)cc1F | 135 to 137 |
| O=C(O)C1(Cc2ccc(Cl)cc2)CCCC1 | 71 to 73 |

| SMILES | melting point [°C] |
| --- | --- |
| CC(C)(C)OC(=O)N1CCCCC1(C)C(=O)O (centres undefined) | 92 to 94 |
| CC(=O)c1cccc(OCC(=O)O)c1 | 119 to 121 |
| CC(C)NC(=O)CCCl | 67 to 69 |
| CCOc1ccc(F)c(C(=O)O)c1F | 149 to 151 |
| CC(=O)c1ccc(NC(=O)NC(C)C)cc1 | 147 to 149 |
| COC(=O)c1cccc(-c2ncno2)c1 | 101 to 103 |
| Cc1nnnn1C(Cc1ccccc1)C(=O)O (centres undefined) | 167 to 169 |
| NS(=O)(=O)c1ccc(C(=O)O)cc1Cl | 231 to 233 |
| O=C(O)c1ccc(OCc2cscn2)cc1 | 191 to 193 |
| COC(=O)c1nc(Cl)c2ccccc2c1OC | 103 to 105 |
| CC(O)CS(=O)(=O)c1ccccc1 (centres undefined) | 46 to 48 |
| Cn1cc(C(N)=O)cc1C(=O)O | 223 to 225 |
| COC(=O)CCOc1ccc(Cl)cc1Cl | 35 to 37 |
| CC(C)(C)OC(=O)NCC#Cc1ccc(OCc2ccccc2)cc1 | 104 to 106 |
| CC(C)(C)c1ccc(S(=O)(=O)N2CCNCC2)cc1 | 126 to 128 |
| Cc1ccc(Cl)c(C(=O)O)c1N | 152 to 154 |
| C=CCn1cc(C(=O)O)c2ccccc21 | 159 to 161 |
| Nc1n[nH]c(C(=O)O)c1-c1ccccc1 | 269 to 271 |
| Clc1cccc2cc(I)cnc12 | 97 to 99 |
| COc1cc(/C=C/C(=O)O)ccc1OC(C)C | 83 to 87 |
| NC(Cc1cccs1)=NO | 79 to 82 |
| COC(=O)c1ccc(S(=O)(=O)Cl)c(Cl)c1 | 64 to 66 |
| Clc1ccnc(-c2ccccc2)n1 | 69 to 71 |
| CS(=O)(=O)NC1CCCNC1 (centres undefined) | 123 to 125 |
| Cn1nnc2cc(C(=O)O)cnc21 | 229 to 231 |

| SMILES | melting point [°C] |
| --- | --- |
| CC(C)COc1ccc(C(C)(C)C(=O)O)cc1 | 107 to 109 |
| Sc1nnc(-c2ccco2)n1C1CCCCC1 | 134 to 136 |
| O=C(O)CCS(=O)(=O)c1ccc2c(c1)OCCO2 | 154 to 156 |
| O=C(O)CNc1ncnc2ccccc12 | 219 to 221 |
| Nc1ccccc1NC(=O)CC1C=CCC1 (centres undefined) | 128 to 130 |
| COc1ccc(Nc2nnc(S)s2)cc1 | 184 to 186 |
| O=C1CCc2c(F)cc(F)cc21 | 95 to 97 |
| Nc1nc(-c2sccc2Br)cs1 | 151 to 153 |
| N#Cc1ccc(F)c(CS(=O)(=O)Cl)c1 | 105 to 107 |
| CC(=O)CC(=O)Nc1ccc(F)c(F)c1 | 92 to 94 |
| CC12CCCC(C(=O)O)(CCC1)C2 | 144 to 146 |
| N#Cc1cc2c([nH]c1=O)CCC2 | 219 to 221 |
| O=C(CCl)NC(=O)NC1CC1 | 105 to 107 |
| Sc1nnc(NCCCN2CCOCC2)s1 | 145 to 147 |
| NC(=O)Cc1cc(Br)c(-c2ccc(N)cc2)s1 | 189 to 191 |
| N#CCC(=O)c1ccc(OC(F)F)cc1 | 80 to 82 |
| O=Cc1ccc(-c2ccc(Cl)cc2[N+](=O)[O-])o1 | 92 to 94 |
| Nc1cnn(-c2ncccn2)c1 | 169 to 171 |
| CC(=O)c1ccc(OC2CCCCC2)c(F)c1 | 48 to 50 |
| Cc1[nH]c(-c2ccccn2)nc(=NN)c1C | 182 to 184 |
| CCCNC(=O)c1ccc(Cl)nc1 | 108 to 110 |
| Cc1ccccc1SC(C(=O)O)c1ccccc1 (centres undefined) | 100 to 102 |
| OC1CCCc2c[nH]nc21 (centres undefined) | 107 to 109 |
| Clc1cc2c(cc1Cl)OCO2 | 71 to 73 |
| O=C(O)c1ccc(Br)cc1S | 203 to 205 |

| SMILES | melting point [°C] |
| --- | --- |
| Fc1ccc2c(c1)NCCC2 | 46 to 48 |
| Cc1ccc(-c2ccc(C(=O)O)s2)o1 | 197 to 199 |
| Oc1ccccc1Oc1ccccn1 | 110 to 112 |
| OC1(CCOc2ccccc2)CC1 | 57 to 59 |
| NS(=O)(=O)Cc1ccon1 | 106 to 108 |
| COc1ccc(N2C(=O)C=CC2=O)cn1 | 122 to 124 |
| Cc1ccc(-n2nnc(C(=O)O)c2C2CC2)cc1 | 173 to 175 |
| O=C(O)c1ccccc1SCC(=O)N1CCCC1 | 115 to 117 |
| N#Cc1c(F)cccc1OC(F)F | 29 to 31 |
| N#CC1=C(N)N2Cc3ccccc3CC2C1=O (centres undefined) | 307 to 309 |
| O=C1NC(=O)C2(CCCc3ccccc32)N1 (centres undefined) | 203 to 205 |
| Cc1cc(C(=O)O)c(C)n1C(C)c1ccccc1 (centres undefined) | 135 to 137 |
| CC1=NN(c2ccccc2)C(=O)C1=NO | 131 to 133 |
| CC(=O)OCC(N)=S | 75 to 77 |
| O=Cc1cc(CCl)ccc1O | 87 to 89 |
| Cn1ccc2ccnc(Cl)c21 | 57 to 59 |
| Oc1ccc(Oc2nccs2)cc1 | 126 to 128 |
| CC1CC(C(=O)O)CC(=O)N1 (centres undefined) | 159 to 161 |
| CCOC(=O)c1ccn[nH]1 | 159 to 161 |
| CC(NC(=O)CCC(=O)O)C(=O)c1ccc(Br)cc1 (centres undefined) | 136 to 138 |
| O=C1C=CC=NC1=C(O)Nc1cccnc1 | 120 to 122 |
| CNCCC1CCN(C2CCN(C)CC2)CC1 | 48 to 50 |
| O=C(O)c1cc(Br)ncc1[N+](=O)[O-] | 169 to 171 |
| Cc1sc2nc(S)n(C(C)C)c(=O)c2c1C | 270 to 272 |
